Data as given in PMC11705230, “Discovery and Synthetic Applications of a NAD(P)H-Dependent Reductive Aminase from Rhodococcus erythropolis” (ACS Catalysis, 2024).

Target: T1, RytRedAm (Rhodococcus erythropolis, UniProt Z9GXG8TLZ1)
T1 construct: recombinant, N-terminal His-tag in pET-28a(+), E. coli BL21(DE3); Ni-NTA purified; homodimer; printed residues R35, I69, T90, D166, Y235
T1 sequence (Z9GXG8TLZ1 1-291): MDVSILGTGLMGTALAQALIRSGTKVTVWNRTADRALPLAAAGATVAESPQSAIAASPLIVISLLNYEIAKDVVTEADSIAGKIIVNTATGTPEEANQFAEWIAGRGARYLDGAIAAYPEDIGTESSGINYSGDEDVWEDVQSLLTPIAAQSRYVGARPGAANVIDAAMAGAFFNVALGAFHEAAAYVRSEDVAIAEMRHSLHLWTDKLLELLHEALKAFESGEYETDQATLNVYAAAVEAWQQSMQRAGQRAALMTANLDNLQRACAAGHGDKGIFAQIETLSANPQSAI
Experiment: X-ray crystallography
Type: binding
Conditions: cocrystallized with NADP+, nicotinamide ring and ribose density absent; cofactor site; pH 7.0

For Nc1ncnc2c1ncn2[C@@H]1O[C@H](COP(=O)(O)OP(=O)(O)O)[C@@H](O)[C@H]1OP(=O)(O)O [ADP-2RP], the X-ray crystallography was “crystals obtained with the latter gave an ADP-2′-ribose phosphate (ADP-2RP) complex”.
